Experimental data published in paper PMC3513391 (Biochemistry, 2012).

Legend:
[1] = molecular target: Homoprotocatechuate 2,3-dioxygenase (FeHPCD) (Brevibacterium fuscum, UniProt Q45135); test: competition with 4NC by UV-vis; format: binding
[2] = molecular target: T1, Homoprotocatechuate 2,3-dioxygenase (FeHPCD), Y257F variant (Brevibacterium fuscum, UniProt Q45135, Y257F); test: competition with 4NC by UV-vis; format: binding
[3] = molecular target: T1, Homoprotocatechuate 2,3-dioxygenase (FeHPCD), Y257F variant; test: UV-vis spectral change on anaerobic binding

Row | Structure (SMILES) | Kd [1] [µM] | Kd [2] [µM] | Kd [3] [µM]
1 | O=C(O)Cc1ccc(O)c(O)c1 [HPCA, homoprotocatechuate] | < 5 | < 5 | 
2 | O=[N+]([O-])c1ccc(O)c(O)c1 [4NC, 4-nitrocatechol] |  |  | ~5
